The source of these data is paper PMC9863109 (Viruses, 2023).

In series [1] the test system is ICR outbred mice. As to conditions: mouse, in vivo.
The subject of series [2] is ICR outbred mice. As to conditions: mouse, in vivo. This is another data set of the same source.
The subject of series [3] is Wistar rats. The conditions noted are these: rat, in vivo.
Series [4] has as its system Wistar rats. The conditions noted are these: rat, in vivo. This is another data set of the same source.
For series [5] the following is noted: mouse, in vivo.
Series [6] has as its system ectromelia virus. The conditions noted are these: mouse, in vivo, po; cited from earlier work.
The test system of series [7] is monkeypox virus strain V79-1-005. As to conditions: mouse, in vivo, po; cited from earlier work.
The subject of series [8] is Ind-3a variola virus strain. The conditions noted are these: mouse, in vivo, po; cited from earlier work.
For series [9], the system named is monkeypox virus strain V79-1-005. The conditions noted are these: in vivo, po; cited from earlier work.
For series [10], the system named is ectromelia virus. As to conditions: mouse, in vivo; cited from earlier work.
Another series has as its system monkeypox virus. The conditions noted are these: cynomolgus monkey, in vivo; cited from earlier work.
The next series can be described thus: in vivo. The conditions noted are these: both, ICR, mouse.
For series [11] the following is noted: cynomolgus monkey, in vivo; cited from earlier work.
For series [12] the following is noted: mouse, in vivo; cited from earlier work.
Another series concerns animals. The conditions noted are these: in vivo, po; cited from earlier work.
The next series relates to BALB/c mice. The conditions noted are these: mouse, in vivo; cited from earlier work.
The next series has as its system NZW rabbits. The conditions noted are these: rabbit, in vivo; cited from earlier work.
In the next series the test system is cynomolgus monkeys. The conditions noted are these: cynomolgus monkey, in vivo; cited from earlier work.

Each structure is given as a SMILES string.

`O=C(NNC(=O)C1C2C=CC(C3CC23)C1C(=O)O)c1ccc(C(F)(F)F)cc1` (centres unmarked) [NIOCH-14, 7-({[(4-trifluoromethyl)phenyl]formohydrazido}carbonyl)tricyclo[3.2.2.0^2,4]non-8-en-6-carboxylic acid]: in the series with ICR outbred mice [1], the “hazard class according to GOST 12.1.007-76” value was “low-hazard compound” and the “macroscopic pathomorphological changes in organs” value is given as “no macroscopic pathomorphological changes”. Moreover, in the series with ICR outbred mice [2], the WBC differential result is on record as “remained unchanged”; the “effect on animals' appearance and behavior” value is recorded as “no significant effect”; the “increase of platelet count vs. control group 1” value is 28%; the “reduction of WBC count vs. control group 1” value is listed as 23%. In addition, in the series with Wistar rats [3], the “changes in hematological parameters” value is recorded as “no significant changes”; the “effect on animals' appearance and behavior” value is “no significant effect”. In addition, in the series on Wistar rats [4], the animal death result is “did not cause animal death” and the “effect on hematological parameters” value is “no significant effect”. In [5], the “Absolute bioavailability Fabs” value is 22.8%, the “time of maximum concentration of ST-246 in serum” value is 15 min and the “visible adverse reactions to i/v administration” value was “no visible adverse reactions”. For the same molecule, the 50% effective dose with ectromelia virus [6] is recorded as 3.59 µg/g. The “virus production in the lungs” value in series [7] was “significantly reduced virus production in the lungs”. The “number of infected mice and virus production in the lungs” value in [8] was “significantly reduced”. The signs of disease result in series [9] is “no signs of disease”.
As for `O=C(NN1C(=O)C2C3C=CC(C4CC34)C2C1=O)c1ccc(C(F)(F)F)cc1` (centres unmarked) [ST-246, N-{3,5-dioxo-4-azatetracyclo[5.3.2.0^2,6.0^8,10]dodec-11-en-4-yl}-4-(trifluoromethyl)benzamide], the “visible adverse reactions to i/v administration” value in series [5] is listed as “no visible adverse reactions”. In the series on ectromelia virus [6], the 50% effective dose is 5.08 µg/g. Besides, the “dose of optimal effectiveness” value with ectromelia virus [10] is listed as 100 µg/g. Also, the effective dose with monkeypox virus is reported as 3 µg/g. In addition, in “in vivo” (iv), the Tmax was 0.25 h and the half-life was 2 h. The peak level in “in vivo” (iv, Cmax) (Cmax) was 13200 ng/mL. Also, in “in vivo” (iv, maximum concentration (Cmax) of ST-246 in serum), the maximum concentration (Cmax) turned out to be 13200 ng/mL. Further, in the series “in vivo” (po), the time to peak (Tmax) was determined as 3 h, the bioavailability is 12.1% and the half-life is 3.4 h. Further, in “in vivo” (po, Cmax), the Cmax was determined as 15500 ng/mL. The molecule also came in with a Cmax in “in vivo” (po, maximum concentration (Cmax) of ST-246 in serum) of 15500 ng/mL. Also, in series [11], the “absolute oral bioavailability (Fabs)” value was 31-77%. Besides, in series [12], the T1/2 is listed as 2.2 h, the Tmax in serum is 4.5 h and the “plasma Cmax” value was 44000 ng/mL. Further, the animal death entry in the series on animals is “did not cause death”. For the same molecule, in the series with BALB/c mice, the “disorders or damage in the animals” value is recorded as “no disorders or damage”. The pathological effects result in the series on NZW rabbits was “No pathological effects”. Moreover, the pathological processes result in the series with cynomolgus monkeys is listed as “did not cause any pathological processes”.
